The record followed here is patent US20240174634A1, “Aldehyde Dehydrogenase Inhibitors and Their Therapeutic Use” (priority 2020, published 2024).

Molecules are shown by their SMILES.

As a reminder, the IC50 is the concentration that inhibits the measured activity by half. A lower IC50 goes with higher potency.

The assay deals with T1, ALDH2 (Homo sapiens, UniProt P05091).
T1 sequence (P05091 18-517): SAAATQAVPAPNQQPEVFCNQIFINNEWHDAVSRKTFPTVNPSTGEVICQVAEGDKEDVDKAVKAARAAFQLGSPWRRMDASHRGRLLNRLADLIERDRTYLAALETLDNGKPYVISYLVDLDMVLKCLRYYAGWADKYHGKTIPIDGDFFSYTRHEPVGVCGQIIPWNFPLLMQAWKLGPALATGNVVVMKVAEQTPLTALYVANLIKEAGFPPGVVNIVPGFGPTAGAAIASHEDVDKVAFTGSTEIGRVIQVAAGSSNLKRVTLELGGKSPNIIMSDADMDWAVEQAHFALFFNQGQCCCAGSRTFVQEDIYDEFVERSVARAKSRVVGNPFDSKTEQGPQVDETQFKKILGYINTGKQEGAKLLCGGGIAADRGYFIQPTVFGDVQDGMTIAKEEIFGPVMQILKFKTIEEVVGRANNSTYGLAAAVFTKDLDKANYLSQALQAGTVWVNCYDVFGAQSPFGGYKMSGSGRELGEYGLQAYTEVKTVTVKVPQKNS
Kind of assay: Selectivity biochemical assay, NAD(P)H-Glo Detection System. As to the method:
Materials: ALDH2 was purchased from Abnova. Tris(hydroxymethyl)aminomethane (Tris) was purchased from MP Biomedicals. TCEP, ethylenediaminetetraacetic acid (EDTA), propionaldehyde, DMSO and Tween-20 were purchased from Sigma. Nicotinamide adenine dinucleotide (NAD) was obtained from Abcam. The NAD(P)H-Glo™ Detection System was purchased from Promega. White, non-binding surface, 384 well plates were supplied by Corning (#3574).
Method: Inhibition of ALDH1A3 was assessed using the NAD(P)H-Glo™ Detection System (Cat. No. G9062) from Promega. This assay detects the production of NADH from NAD by ALDH1A3 via the coupled enzymatic conversion of a proluciferin reductase substrate to generate a luminescent signal. Inhibition of ALDH1A3 by small molecule inhibitors will result in reduction or abrogation of luminescence signal increase above background. Inhibition of ALDH1A1, ALDH1A2 and ALDH2 (selectivity assays) were assessed using the same assay.
Compounds were dosed into Corning 384 well assay plates using an Echo acoustic dispenser to give 10 point curves in a 3-fold dilution series. Compounds were dispensed from a 20 mM DMSO stock and initially screened at a top concentration of 20 μM (ALDH1A3) or 250 μM (ALDH1A1, ALDH1A2 & ALDH2). Enzyme was added to the plate in a 5 μL volume, according to the final concentrations in table 1 below, and pre-incubated with compound for 30 minutes at room temperature before the addition of 5 μL of the substrate (propionaldehyde) and cofactor (NAD), to effect final concentrations equal to the Km as shown in Table 1. The assay buffer used consisted of 40 mM Tris for 1A1 (pH 7.6), 1A2 (pH 7.6) and 1A3 (pH 9.0) and 10 mM Tris for ALDH2 (pH 8.0) supplemented with 1 mM TCEP, 0.01% Tween-20, 0.1 mM EDTA. The reaction mix was incubated at 26° C. on a shaking incubator for 30 minutes before being stopped by the addition of 10 μL of the Promega detection reagent and 100×IC50 of inhibitors of the respective isoforms. After stopping the reaction the plate was incubated for 60 minutes at room temperature and the luminescence signal read on a PheraStar FS microplate reader (BMG Labtech) and resulting IC50 values were calculated using Dotmatics software.
Enzyme, substrate and cofactor concentrations were selected to ensure the reaction ran under initial velocity conditions.
`O=C1CSc2cc(OCCN3CCCC3c3cccnc3)ccc2N1` (stereo not drawn) [ALDHI-2028, 7-[2-[2-(3-pyridyl)pyrrolidin-1-yl]ethoxy]-4H-1,4-benzothiazin-3-one] gave an IC50 of no less than 100 µM.

Turning to `O=C1CCc2cc(OCCN(CCO)Cc3cccc(F)c3)ccc2N1` [ALDHI-3002, 6-[2-[(3-fluorophenyl)methyl-(2-hydroxyethyl)amino]ethoxy]-3,4-dihydro-1H-quinolin-2-one], the IC50 was no less than 100 µM.

For the compound `C[C@H](c1ccccc1)N(CCO)CCOc1ccc2c(c1)CCC(=O)N2` [ALDHI-3006, 6-[2-[2-hydroxyethyl-[(1R)-1-phenylethyl]amino]ethoxy]-3,4-dihydro-1H-quinolin-2-one], the IC50 was no less than 100 µM.

In the case of `O=C1CCc2cc(NC(=O)c3cncnc3-c3cccc(F)c3)ccc2N1` [ALDHI-1018, 4-(3-fluorophenyl)-N-(2-oxo-3,4-dihydro-1H-quinolin-6-yl)pyrimidine-5-carboxamide], the IC50 is no less than 100 µM.

Compound `O=c1ccc2cc(OCCN3CCCC3c3cccc(F)c3)ccc2[nH]1` (stereo not drawn) [ALDHI-2022, 6-[2-[2-(3-fluorophenyl)pyrrolidin-1-yl]ethoxy]-1H-quinolin-2-one] registered a concentration for half-maximal inhibition (IC50) of no less than 100 µM.

`CN(CCOc1ccc2c(c1)CCC(=O)N2)Cc1cccnc1` [ALDHI-3010, 6-[2-[methyl(3-pyridylmethyl)amino]ethoxy]-3,4-dihydro-1H-quinolin-2-one] showed an IC50 of no less than 100 µM.

Regarding `O=C1CCc2cc(OCCN3CCCC3c3ccccc3)ccc2N1` (stereo not drawn) [ALDHI-2019, 6-[2-(2-phenylpyrrolidin-1-yl)ethoxy]-3,4-dihydro-1H-quinolin-2-one], the IC50 was no less than 100 µM.

In turn, `O=C1CCc2cc(OCCN3CCCC3c3ccc(F)cc3)ccc2N1` (stereo not drawn) [ALDHI-2003, 6-[2-[2-(4-fluorophenyl)pyrrolidin-1-yl]ethoxy]-3,4-dihydro-1H-quinolin-2-one] gave an IC50 of 10 to 100 µM.

Regarding `O=C1CCc2cc(OCCN3CCCC3c3ccsc3)ccc2N1` (stereo not drawn) [ALDHI-2014, 6-[2-[2-(3-thienyl)pyrrolidin-1-yl]ethoxy]-3,4-dihydro-1H-quinolin-2-one], the IC50 is no less than 100 µM.

In the case of `Cc1ccccc1C1CCCN1CCOc1ccc2c(c1)CCC(=O)N2` (stereo not drawn) [ALDHI-2012, 6-[2-[2-(o-tolyl)pyrrolidin-1-yl]ethoxy]-3,4-dihydro-1H-quinolin-2-one], the concentration for half-maximal inhibition (IC50) is no less than 100 µM.

`CCN(CC)CCN(CCOc1ccc2c(c1)CCC(=O)N2)Cc1ccccc1` [ALDHI-3004, 6-[2-[benzyl-[2-(diethylamino)ethyl]amino]ethoxy]-3,4-dihydro-1H-quinolin-2-one] registered an IC50 of no less than 100 µM.

Regarding `O=C1CCc2cc(OCCn3ccnc3-c3ccccc3)ccc2N1` [ALDHI-2041, 6-[2-(2-phenylimidazol-1-yl)ethoxy]-3,4-dihydro-1H-quinolin-2-one], the IC50 is no less than 100 µM.

Compound `O=C1CCc2cc(OCCN3CCCCC3c3cccc(F)c3)ccc2N1` (stereo not drawn) [ALDHI-2038, 6-[2-[2-(3-fluorophenyl)-1-piperidyl]ethoxy]-3,4-dihydro-1H-quinolin-2-one] gave an IC50 of no less than 100 µM.

`Cc1cccc(C2CCCN2CCOc2ccc3c(c2)CCC(=O)N3)c1` (stereo not drawn) [ALDHI-2011, 6-[2-[2-(m-tolyl)pyrrolidin-1-yl]ethoxy]-3,4-dihydro-1H-quinolin-2-one] had an IC50 of no less than 100 µM.

With `Cc1ccc(C2CCCN2CCOc2ccc3c(c2)CCC(=O)N3)cc1` (stereo not drawn) [ALDHI-2010, 6-[2-[2-(p-tolyl)pyrrolidin-1-yl]ethoxy]-3,4-dihydro-1H-quinolin-2-one], the 50% inhibitory concentration (IC50) is no less than 100 µM.

In turn, `O=C1CCc2cc(OCCN3CCC3c3cccc(F)c3)ccc2N1` (stereo not drawn) [ALDHI-2021, 6-[2-[2-(3-fluorophenyl)azetidin-1-yl]ethoxy]-3,4-dihydro-1H-quinolin-2-one] showed an IC50 of no less than 100 µM.

In the case of `O=C1CCc2cc(OCCN3CCCC3c3ccccn3)ccc2N1` (stereo not drawn) [ALDHI-2006, 6-[2-[2-(2-pyridyl)pyrrolidin-1-yl]ethoxy]-3,4-dihydro-1H-quinolin-2-one], the IC50 is no less than 100 µM.

`CN(CCOc1ccc2c(c1)CCC(=O)N2)C(CO)c1cccc(F)c1` (stereo not drawn) [ALDHI-3003, 6-[2-[[1-(3-fluorophenyl)-2-hydroxy-ethyl]-methyl-amino]ethoxy]-3,4-dihydro-1H-quinolin-2-one] displayed an IC50 of no less than 100 µM.

`CN(CCOc1ccc2c(c1)CCC(=O)N2)Cc1cccc(F)c1` [ALDHI-3001, 6-[2-[(3-fluorophenyl)methyl-methyl-amino]ethoxy]-3,4-dihydro-1H-quinolin-2-one] had an IC50 of no less than 100 µM.

`O=C1CCc2cc(OCCN3CCOCC3c3cccc(F)c3)ccc2N1` (stereo not drawn) [ALDHI-2031, 6-[2-[3-(3-fluorophenyl)morpholin-4-yl]ethoxy]-3,4-dihydro-1H-quinolin-2-one] yielded an IC50 of no less than 100 µM.

The compound `O=C1CCc2cc(NC(=O)c3scnc3-c3cccc(F)c3)ccc2N1` [ALDHI-1003, 4-(3-fluorophenyl)-N-(2-oxo-3,4-dihydro-1H-quinolin-6-yl)thiazole-5-carboxamide] came in with an IC50 of no less than 100 µM.

Turning to `CN(CCOc1ccc2c(c1)CCC(=O)N2)C(=O)c1cccc(F)c1` [ALDHI-3008, 3-fluoro-N-methyl-N-[2-[(2-oxo-3,4-dihydro-1H-quinolin-6-yl)oxy]ethyl]benzamide], the IC50 is no less than 100 µM.

In turn, `O=C1CCc2cc(OCCN3CCCC3c3ccccc3F)ccc2N1` (stereo not drawn) [ALDHI-2002, 6-[2-[2-(2-fluorophenyl)pyrrolidin-1-yl]ethoxy]-3,4-dihydro-1H-quinolin-2-one] gave an IC50 of no less than 100 µM.

On to `Cn1cc(C2CCCN2CCOc2ccc3c(c2)SCC(=O)N3)cn1` (stereo not drawn) [ALDHI-2026, 7-[2-[2-(1-methylpyrazol-4-yl)pyrrolidin-1-yl]ethoxy]-4H-1,4-benzothiazin-3-one], for which the IC50 was no less than 100 µM.

The compound `O=C1CCc2cc(NC(=O)c3sc(N4CCNCC4)nc3-c3cccc(F)c3)ccc2N1` [ALDHI-1005, 4-(3-fluorophenyl)-N-(2-oxo-3,4-dihydro-1H-quinolin-6-yl)-2-piperazin-1-yl-thiazole-5-carboxamide] showed an IC50 of no less than 100 µM.

`O=C1CCc2cc(NC(=O)c3ncsc3-c3cccnc3)ccc2N1` [ALDHI-1010, N-(2-oxo-3,4-dihydro-1H-quinolin-6-yl)-5-(3-pyridyl)thiazole-4-carboxamide] came in with an IC50 of no less than 100 µM.

`O=C1CCc2cc(NC(=O)c3scnc3-c3ccc(F)cc3)ccc2N1` [ALDHI-1017, 4-(4-fluorophenyl)-N-(2-oxo-1,2,3,4-tetrahydroquinolin-6-yl)thiazole-5-carboxamide] gave an IC50 of no less than 100 µM.

For the compound `CC1CN(CCOc2ccc3c(c2)CCC(=O)N3)C(c2ccccc2)CO1` (mixture of isomers) [ALDHI-2042, 6-[2-(2-methyl-5-phenyl-morpholin-4-yl)ethoxy]-3,4-dihydro-1H-quinolin-2-one], the IC50 was no less than 100 µM.

On to `O=C1CCc2cc(NC(=O)c3sccc3-c3cccc(F)c3)ccc2N1` [ALDHI-1022, 3-(3-fluorophenyl)-N-(2-oxo-3,4-dihydro-1H-quinolin-6-yl)thiophene-2-carboxamide], for which the IC50 was no less than 100 µM.

As for `O=C1CCc2cc(NC(=O)c3sc(N4CC(O)C4)nc3-c3cccc(F)c3)ccc2N1` [ALDHI-1004, 4-(3-fluorophenyl)-2-(3-hydroxyazetidin-1-yl)-N-(2-oxo-3,4-dihydro-1H-quinolin-6-yl)thiazole-5-carboxamide], the IC50 is no less than 100 µM.

`C[C@@H](c1ccccc1)N(CCO)CCOc1ccc2c(c1)CCC(=O)N2` [ALDHI-3007, 6-[2-[2-hydroxyethyl-[(1S)-1-phenylethyl]amino]ethoxy]-3,4-dihydro-1H-quinolin-2-one] yielded a half-inhibitory concentration (IC50) of no less than 100 µM.

Consider `O=C1CSc2cc(OCCN3CCCC3c3ccncc3)ccc2N1` (stereo not drawn) [ALDHI-2029, 7-[2-[2-(4-pyridyl)pyrrolidin-1-yl]ethoxy]-4H-1,4-benzothiazin-3-one], for which the IC50 was no less than 100 µM.

For `CC1Oc2cc(OCCN3CCCC3c3cccc(F)c3)ccc2NC1=O` (stereo not drawn) [ALDHI-2044, 7-[2-[2-(3-fluorophenyl)pyrrolidin-1-yl]ethoxy]-2-methyl-4H-1,4-benzoxazin-3-one], the IC50 is no less than 100 µM.
